Values quoted from earlier work as cited in patent US20180271919A1, “PROBIOTIC COMPOSITION AT LEAST COMPRISING BIFIDOBACTERIUM BIFIDUM W23 AND CAPABLE OF CONTROLLING INTESTINAL BARRIER FUNCTION” (Winclove Holding B.V., priority 2015, published 2018).

Tested on: patients with schizophrenia
Conditions: patients with schizophrenia prescribed the drug

SMILES: CN1CCN(C2=Nc3cc(Cl)ccc3Nc3ccccc32)CC1 [clozapine]
- Rate of metabolic syndrome: 52%
